From a melting point compilation (Tetko et al.; mined from patent text by program, amines drawn as free bases though some values may be those of a salt)
Residues, ends and D or L forms follow the SMILES beside them. *: point of attachment. Boc = CC(C)(C)OC(=O)*

| SMILES | melting point [°C] |
| --- | --- |
| Cc1oc(=O)oc1COC(=O)c1oc2cccc(O)c2c1C | 168 to 170 |
| COC(=O)c1cncc(-c2ccc(OC)c(N)c2)c1 | 98 to 99 |
| CC(C)C1(C)N=C(c2ncc(CN(C)C)cc2C(=O)O)NC1=O (stereo not drawn) | 186 to 190 |
| CC(=O)NC(COC1CCN(c2nc3ccc(OCC4CC4)cc3o2)CC1)C(F)(F)F (stereo not drawn) | 126 to 127 |
| COS(=O)(=O)c1cc(C(C)(C)C)c(O)c(C(C)(C)C)c1 | 116 to 118 |
| Cn1cc(C(=O)c2ccc(Cl)cc2)cc1C(=O)CCl | 130 to 132 |
| CS(=O)(=O)Nc1ccc(C(N)=O)cc1Sc1ccc(F)cc1F | 176 to 178 |
| C=CCC(C(=O)N1C(=O)OCC1Cc1ccccc1)c1ccc(F)cc1 (stereo not drawn) | 103 to 104 |
| COc1ccc(-c2cc3cc(Br)ccc3o2)cc1 | 189 |
| Cc1noc(NS(=O)(=O)c2ccccc2-c2ccc(-c3ncco3)cc2CN2OCC(C)(C)C2=O)c1C | 95 to 100 |
| O=C(O)C1Cc2c(c(Cl)cc3c(-c4ccc(F)cc4)noc23)O1 (stereo not drawn) | 215 to 218 |
| CC(C)CCc1c(-c2ccc(S(N)(=O)=O)cc2)cnn(-c2ccc(F)c(Cl)c2)c1=O | 154 to 156 |
| CC1(C)CC(=O)C2=C(C1)NC1=C(C(=O)CC(C)(C)C1)C2c1ccc(Cl)c(Oc2ccncc2)c1 | 242 to 244 |
| COc1cc2c(c3c1OC(C)(C)C3)C(c1cccc(N(C(N)=O)c3cccnc3)c1)=NC(C)(C)C2 | 168 to 169 |
| O=C(CBr)c1ccc(-c2ccc([N+](=O)[O-])cc2)o1 | 153 to 162 |
| O=C(Nc1nnc[nH]1)c1ccc2ccccc2c1 | 191 to 192 |
| CSCCC(NC(=O)C(CC(C)C)NC(=O)CNC(=O)C(NC(=O)C(Cc1ccccc1)NC(=O)C(C)NC(=O)OC(C)(C)C)C(C)C)C(=O)O (stereo not drawn) (Boc-AFVGLM-OH; configuration not given here) | 252 to 281 |
| Cc1ccc2cccc(OCc3cccc(N(C)C(=O)CN4C(=O)c5ccccc5C4=O)c3C)c2n1 | 158 to 161 |
| O=C(O)CCCCNC(=O)c1ccccc1NC(=O)c1ccccc1O | 168 to 170 |
| COC(=O)c1cccnc1C(=O)c1ccc(-n2ccnc2)cc1 | 171 to 174 |
| CC(=O)C(=NO)C(=O)OC(C)(C)C | 55 to 63 |
| CNc1ccccc1C(C)=O | 34 to 35 |
| O=C1CC2(CCC2)C(CC(Cl)(Cl)Cl)O1 (stereo not drawn) | 86.5 to 87.5 |
| COC(=O)C=C(C)c1ccc2c(ccn2S(=O)(=O)c2ccccc2)c1 | 80 to 85 |
| COCOCc1nc(-c2ccccc2)oc1CO | 70 to 71 |

| SMILES | melting point [°C] |
| --- | --- |
| O=C(Nc1ccc2c(c1)C(=O)c1cc(NC(=O)c3ccccc3)ccc1C2=O)c1ccccc1 | 224 |
| COc1ccc(Cl)c(Oc2cnc(-c3ncccn3)nc2C=O)c1 | 211 |
| Nc1ccc(C(=O)N(CCN2CCC(C(=O)c3ccc(F)cc3)CC2)c2ccccc2)cc1 | 156 to 157 |
| CC(CO)(CO)NS(=O)(=O)c1cccc(NC(=O)c2cnn3c(C(F)F)cc(-c4ccc(C(F)(F)F)cc4)nc23)c1 | 246 |
| CC(C)CCC1C(=O)N(CCl)S(=O)(=O)N1C (stereo not drawn) | 59 to 60 |
| CCOC(=O)c1cnc2c(SSc3ccccc3[N+](=O)[O-])cccn2c1=O | 191 to 193 |
| CCOCCn1c(CCl)nc2ccccc21 | 75.5 to 77 |
| COc1cc(N)c(Cl)cc1-c1nn(C2CCN(CCc3ccccc3)CC2)c(=O)o1 | 184 |
| O=C1N=C(N2CCSCC2)SC1=Cc1cccc(-c2cc(F)c(O)c(C34CC5CC(CC(C5)C3)C4)c2)c1 | 180 to 184 |
| COC(=O)c1nc(OC)n(C)c1C(=O)OC | 62 to 63 |
| Cc1ccc(Oc2ccc([N+](=O)[O-])cc2)c(O)c1 | 95 to 97 |
| CN(c1cccc2cc(-c3nccs3)[nH]c12)S(=O)(=O)c1ccsc1COCC(=O)O | 189 |
| COC(=O)Cc1ccc(OCCNC(=O)C2Cc3ccccc3N2S(=O)(=O)c2ccc(-c3ccc(C)cc3)c(C(F)(F)F)c2)cc1 (stereo not drawn) | 60 |
| NS(=O)(=O)c1cccc(-c2noc(-c3cnn4c(C(F)F)cc(-c5ccc(C(F)(F)F)cc5)nc34)n2)c1 | 267 |
| CC(C)c1ccccc1N1/C(=N\N=C/c2ccc(-c3ncn(-c4ccc(OC(F)(F)F)cc4)n3)cc2)SCC1C (stereo not drawn) | 201 to 204 |
| COc1ccc(SC(C(=O)O)c2ccccc2)c(Cl)c1Cl (stereo not drawn) | 180 to 182 |
| Nc1nc(=O)n(C2CC(O)C(CNC(=O)Cc3ccccc3Br)O2)cc1Br (stereo not drawn) | 164 to 167 |
| CCCCCCCCCCN1CCCN(O)C1=O | 45 to 46 |
| Cc1cc([N+](=O)[O-])c(NC(C)C)c([N+](=O)[O-])c1C | 69 to 70 |
| Clc1ccc(-c2nc(Cl)cc(NCCN3CCOCC3)n2)cc1 | 127 to 129 |
| O=C(O)c1ccccc1NCCNc1ccccc1C(=O)O | 248 |
| C#CCn1cc(C(=O)OCC)sc1=O | 70 to 71 |
| Cc1ccc(Oc2nsnc(Cl)c2=O)cn1 | 155 to 156 |
| N[C@H]1CCN(c2ccc3c(C(=O)NCC4CCCCC4)cccc3n2)C1 | 127 to 128 |
| CCN(C(=O)C1CC1)c1cccc(-c2ccnc3ccnn23)c1 | 127 to 129 |

| SMILES | melting point [°C] |
| --- | --- |
| NC(=O)NNCc1ccc(OCCc2coc(-c3ccccc3)n2)cc1 | 192 to 196 |
| COc1cc2c(cc1Nc1ncc(Cl)c(N[C@@H]3CCCC[C@H]3NS(C)(=O)=O)n1)CCNC(=O)C2 | 109 to 115 |
| OC(COc1ccc(F)cc1)CN1CCC(O)(c2ccc(Cl)cc2)CC1 (stereo not drawn) | 103 to 105 |
| COc1cc(NC(C)=O)c(Cl)cc1C(=O)NC1CC2CCCCN2C1 (stereo not drawn) | 151 to 153 |
| COc1ccc(Oc2ccc(S(C)(=O)=O)cc2)cc1 | 152 to 153 |
| Cc1nnc2n1-c1ccc(C#CCn3ncc4ccccc43)cc1C(c1ccccc1F)=NC2 | 148 to 151 |
| CC1O[C@@](Cn2cncn2)(c2ccc(Cl)cc2Cl)[C@@H](C)N1S(C)(=O)=O (relative stereo) | 160 to 170 |
| CCc1ncnc(N[C@H]2CC[C@@H](CO)CC2)c1Cl | 71 to 72 |
| Cc1cc(O)c(Cl)c(O)c1 | 72 |
| CCCCc1nc(SC)c(C(=O)OCC)n1Cc1ccccc1-c1ccccc1S(=O)(=O)NC#N | 105 |
| Cc1cn(C2CC(N=[N+]=[N-])C(CO)O2)c(=O)nc1N (stereo not drawn) | 85 to 88 |
| O=[N+]([O-])c1cccc2cc(-c3ccccn3)[nH]c12 | 162 to 163 |
| O=c1cc(-c2ccccc2)oc2cc(OCCCCCCN3CCC(O)CC3)ccc12 | 130 to 131 |
| CN(N=Cc1ccco1)C(=O)c1[nH]c2ccccc2c1-c1ccccc1 | 196 to 199 |
| COc1cccc(Cc2cc3cccc(-c4cccc(C(=O)O)c4)c3o2)c1 | 127 to 129 |
| CC(=O)c1ccc(OCCCCl)cc1O | 74 |
| CNC(=S)C(OC)c1ccccn1 (stereo not drawn) | 104 to 105 |
| Nc1c(Cl)cc(C(=O)OCC2CCN(CCCn3nc(Cl)ccc3=O)CC2)c2c1CCO2 | 137 |
| CSC(=CC(=O)C(F)(F)F)SC | 97 |
| CC(C)(C)Sc1c(CC(C)(C)C(=O)O)n(Cc2ccc(Cl)cc2)c2ccc(OCc3cscn3)cc12 | 194 to 195 |
| CC(C)(c1ccc(Oc2cccc([N+](=O)[O-])c2)cc1)c1ccc(Oc2cccc([N+](=O)[O-])c2)cc1 | 111 to 113 |
| COc1nc(C)cnc1N | 75 to 76.5 |
| O=C(O)c1ccccc1C(=O)N1Cc2ccccc2Cc2ccccc21 | 220 to 225 |
| O=C(O)c1nc2cc(N3CCCCC3)c([N+](=O)[O-])cc2[nH]c1=O | > 300 |
| O=C(c1ccccc1)c1cc(Cl)ccc1-n1cnnc1 | 182 to 184 |

| SMILES | melting point [°C] |
| --- | --- |
| CCOC(=O)c1nc2cccc(F)c2nc1C | 87 to 89 |
| Cc1nccc2[nH]c(=O)c(O)cc12 | > 320 |
| O=C(C#CCO)c1ccc(F)cc1 | 63 |
| O=C(CCCN1CCC(Cc2ccccc2)CC1)c1ccc2c(c1)C(=O)c1cc(C(=O)CCCN3CCC(Cc4ccccc4)CC3)ccc1-2 | 141 to 143 |
| COCc1cc(CCCOc2c(Cl)cc(-c3noc(C)n3)cc2Cl)on1 | 55.5 to 56 |
| CCOC(=O)Cc1nc2ccccc2n1C | 66 to 67 |
| COc1cc(N)c(Cl)cc1C(=O)NCC1CCN(CCCCCC(=O)c2cc3ccccc3s2)CC1 | 157 to 159 |
| COC(=O)c1ccc(=O)n(CCNC(=O)c2ccccc2)c1 | 190 to 191 |
| CCCCCCCCOc1cc(-c2cccc(Cl)c2)c(OCC(=O)O)c(-c2cccc(Cl)c2)c1 | 113 to 116 |
| N#Cc1ccc(-c2cn(-c3ccc(C#N)cc3)c(SCC(O)CO)n2)cc1 (stereo not drawn) | 190 to 195 |
| C#Cc1cccc(Nc2ncnc3ccc(S(=O)(=O)n4ccc(C=CC(=O)Nc5ccccc5N)c4)cc23)c1 | 150 to 153 |
| COC1C=CC2C3Cc4ccc(O)c5c4C2(CCN3C)C1O5 (stereo not drawn) | 242 to 243 |
| NC(=O)C(O)c1c(Cl)cccc1Cl (stereo not drawn) | 155 to 158 |
| CS(=O)c1ccc(-c2nn(Cc3ccc(F)cc3F)c(=O)cc2-c2ccc(Cl)cc2)cc1 (stereo not drawn) | 156 |
| Nc1ccc(NC(=O)N(C[C@H]2CC[C@H](CN(C(=O)Nc3ccc(N)cc3)C3CCCCC3)CC2)C2CCCCC2)cc1 | 185 to 188 |
| CCCCC(=O)Nc1ccc(Oc2ncc(Cl)cn2)c(C)c1 | 146 to 150 |
| COc1ccc(/C(C)=C/c2ccc(C(=O)O)cc2)cc1C12CC3CC(CC(C3)C1)C2 | 307 to 308 |
| Nc1ccc(-c2ccc3nnn(Cc4ccc5ncccc5c4)c3n2)cc1 | 190 to 193 |
| COc1ccc2cc(-c3nc(-c4ccccc4)no3)c(=O)oc2c1 | 215 |
| CCN1C(=O)N(c2cc(OC)cc(OC)c2F)Cc2cnc(NC3CCC(O)CC3)nc21 (stereo not drawn) | 198 to 204 |
| CCCN1CCC(c2ccccc2)=C(C(=O)NCC)C1 | 80 to 83 |
| CCN(CC)C(=O)Oc1c2c(ccc3cc(F)ccc32)nn1-c1ccc(F)cc1 | 159 to 160 |
| OC(C(c1cccc(Cl)c1)n1ccnc1)C12CC3CC(CC(C3)C1)C2 (stereo not drawn) | 115 |
